The record followed here is PubChem BioAssay AID210 (DTP/NCI, 2004).

In the test the test system is CD2F1 mice, ip Colon 26 adenocarcinoma, median survival T/C. In words: NCI In Vivo Anticancer Drug Screen. Data for tumor model Colon 26 Adenocarcinoma (intraperitoneal) in CD2F1 (CDF1) mice. Particulars: endpoint: median survival time, higher = longer survival. The protocol: The antitumor activity of compounds was measured in mice bearing transplantable tumors. Survival or tumor size were measured and the results are expressed as the measurement made in the treated group (T) divided by the measurement made in the vehicle treated control group (C). The tumor model used in this assay is Colon 26 Adenocarcinoma (intraperitoneal) in CD2F1 (CDF1) mice

The mark [1] stands for this setting: dose: 25.0 mg/kg/injection, schedule: Q04DX003 (ip), vehicle: saline with Tween-80.
[2] abbreviates: dose: 50.0 mg/kg/injection, schedule: Q04DX003 (ip), vehicle: saline with Tween-80.
Where [3] appears, read: dose: 100.0 mg/kg/injection, schedule: Q04DX003 (ip), vehicle: saline with Tween-80.
[4] abbreviates: dose: 25.0 mg/kg/injection, schedule: Q04DX003 (ip), vehicle: water.
Setting [5] is: dose: 25.0 mg/kg/injection, schedule: Q04DX003 (ip), vehicle: Klucel (hydroxypropylcellulose) (HPC).
Where [6] appears, read: dose: 50.0 mg/kg/injection, schedule: Q04DX003 (ip), vehicle: Klucel (hydroxypropylcellulose) (HPC).
Where [7] appears, read: dose: 100.0 mg/kg/injection, schedule: Q04DX003 (ip), vehicle: Klucel (hydroxypropylcellulose) (HPC).
Setting [8] is: dose: 200.0 mg/kg/injection, schedule: Q04DX003 (ip), vehicle: Klucel (hydroxypropylcellulose) (HPC).
Setting [9] is: dose: 400.0 mg/kg/injection, schedule: Q04DX003 (ip), vehicle: Klucel (hydroxypropylcellulose) (HPC).
Setting [10] is: dose: 100.0 mg/kg/injection, schedule: Q04DX003 (ip), vehicle: other.
The mark [11] stands for this setting: dose: 3.12 mg/kg/injection, schedule: Q04DX003 (ip), vehicle: Klucel (hydroxypropylcellulose) (HPC).
[12] abbreviates: dose: 6.25 mg/kg/injection, schedule: Q04DX003 (ip), vehicle: Klucel (hydroxypropylcellulose) (HPC).
Where [13] appears, read: dose: 12.5 mg/kg/injection, schedule: Q04DX003 (ip), vehicle: Klucel (hydroxypropylcellulose) (HPC).

Each structure is given as a SMILES string. Toxic doses and inconclusive results are not listed.

As for `CCC1(O)CC2CN(CCc3c([nH]c4ccccc34)C(C(=O)OC)(c3cc4c(cc3OC)N(C)C3C(O)(C(N)=O)C(O)C5(CC)C=CCN6CCC43C65)C2)C1` (stereo unspecified) (tested in a mixture with another compound), the T/C by setting is: (dose: 0.13 mg/kg/injection, schedule: Q04DX002 (ip), vehicle: water) 101 % of control; (dose: 0.25 mg/kg/injection, schedule: Q04DX002 (ip), vehicle: water) 103 % of control; (dose: 0.5 mg/kg/injection, schedule: Q04DX002 (ip), vehicle: water) 104 % of control; (dose: 1.0 mg/kg/injection, schedule: Q04DX002 (ip), vehicle: water) 113 % of control; (dose: 2.0 mg/kg/injection, schedule: Q04DX002 (ip), vehicle: water) 118 % of control.
For `Clc1ccc(C(c2ccccc2Cl)C(Cl)Cl)cc1` (stereo unspecified), the T/C runs as follows: under setting [1], 110 % of control; under setting [2], 98 % of control; under setting [3], 96 % of control; (dose: 200.0 mg/kg/injection, schedule: Q04DX003 (ip), vehicle: saline with Tween-80) 104 % of control; (dose: 400.0 mg/kg/injection, schedule: Q04DX003 (ip), vehicle: saline with Tween-80) 96 % of control.
Regarding `CCN(CC)CCNc1ccc(C)c2sc3ccccc3c(=O)c12`, the T/C is 102 % of control (dose: 25.0 mg/kg/injection, schedule: Q04DX002 (ip), vehicle: suspension in saline); 105 % of control (dose: 50.0 mg/kg/injection, schedule: Q04DX002 (ip), vehicle: suspension in saline); 103 % of control (dose: 100.0 mg/kg/injection, schedule: Q04DX002 (ip), vehicle: suspension in saline); 119 % of control (dose: 200.0 mg/kg/injection, schedule: Q04DX002 (ip), vehicle: suspension in saline).
Consider `COc1cccc2c1C(=O)c1c(O)c3c(c(O)c1C2=O)C[C@@](O)(C(=O)CO)C[C@@H]3OC1CC([N+](C)(C)C)C(O)C(C)O1` (stereo partly specified), for which the T/C runs as follows: (dose: 5.4 mg/kg/injection, schedule: Q04DX003 (ip), vehicle: water) 102 % of control; (dose: 9.0 mg/kg/injection, schedule: Q04DX003 (ip), vehicle: water) 103 % of control; (dose: 15.0 mg/kg/injection, schedule: Q04DX003 (ip), vehicle: water) 96 % of control; under setting [4], 115 % of control.
For `C[C@]12C=CC(=O)C=C1CC[C@@H]1[C@@H]2C(=O)C[C@@]2(C)[C@H]1CC[C@]2(O)C(=O)CO`, the T/C is 105 % of control under setting [5]; 100 % of control under setting [6]; 100 % of control under setting [7]; 96 % of control under setting [8]; 98 % of control under setting [9].
Consider `CCC(C)C(=O)O[C@H]1C(=O)O[C@@H]2C[C@H]3C(C)=CC(=O)[C@@H](O)[C@]3(C)[C@H]3[C@@H](O)[C@H](O)[C@@]4(C)OC[C@]32[C@@H]14` (stereo partly specified), for which the T/C runs as follows: (dose: 0.5 mg/kg/injection, schedule: Q04DX002 (ip), vehicle: saline) 102 % of control; (dose: 1.0 mg/kg/injection, schedule: Q04DX002 (ip), vehicle: saline) 98 % of control; (dose: 2.0 mg/kg/injection, schedule: Q04DX002 (ip), vehicle: saline) 97 % of control.
Regarding `O=c1c(O)c(-c2ccc(O)c(O)c2)oc2cc(O)cc(O)c12`, the T/C by setting is: under setting [10], 89 % of control; (dose: 800.0 mg/kg/injection, schedule: Q04DX003 (ip), vehicle: other) 87 % of control.
`O=C(CCCN1CCC(O)(c2cccc(C(F)(F)F)c2)CC1)c1ccc(F)cc1`: the T/C runs as follows: under setting [11], 94 % of control; under setting [12], 95 % of control; under setting [13], 99 % of control; under setting [5], 97 % of control; under setting [6], 105 % of control.
With `C/C(=C\c1ccccc1)[N+](=O)[O-]`, the T/C is 91 % of control under setting [11], 97 % of control under setting [12], 96 % of control under setting [13] and 90 % of control under setting [5].
`C[C@]1(O)CC[C@H]2[C@@H]3CCC4=CC(=O)CC[C@]4(C)[C@@]3(F)[C@@H](O)C[C@@]21C`: the T/C runs as follows: under setting [5], 94 % of control; under setting [6], 105 % of control; under setting [7], 108 % of control; under setting [8], 99 % of control; under setting [9], 97 % of control.
`COc1cccc2c1C(=N)c1c(O)c3c(c(O)c1C2=O)C[C@@](O)(C(C)=O)C[C@@H]3OC1CC(N)C(O)C(C)O1` (stereo partly specified): the T/C (dose: 3.46 mg/kg/injection, schedule: Q04DX003 (ip), vehicle: water) is 119 % of control; the T/C (dose: 5.76 mg/kg/injection, schedule: Q04DX003 (ip), vehicle: water) was 119 % of control; the T/C (dose: 9.6 mg/kg/injection, schedule: Q04DX003 (ip), vehicle: water) is 94 % of control.
As to `C=CCNc1ccc(C)cc1`, the T/C is, setting by setting: (dose: 12.5 mg/kg/injection, schedule: Q04DX003 (ip), vehicle: saline with Tween-80) 104 % of control; under setting [1], 104 % of control; under setting [2], 96 % of control; under setting [3], 97 % of control.
As to `O=[N+]([O-])/C=C\c1ccc2c(c1)OCO2`, the T/C by setting is: under setting [11], 87 % of control; under setting [12], 105 % of control; under setting [5], 90 % of control.
On to `CCC1(O)CC2CN(CCc3c([nH]c4ccccc34)C(C(=O)OC)(c3cc4c(cc3OC)N(C)C3C(O)(C(=O)NCCSSCCNC(=O)C5(O)C(O)C6(CC)C=CCN7CCC8(c9cc(C%10(C(=O)OC)CC%11CN(CCc%12c%10[nH]c%10ccccc%12%10)CC(O)(CC)C%11)c(OC)cc9N(C)C58)C76)C(O)C5(CC)C=CCN6CCC43C65)C2)C1` (stereo unspecified), for which the T/C was 114 % of control (dose: 540.0 micrograms/kg/injection, schedule: Q04DX003 (ip), vehicle: saline); 114 % of control (dose: 900.0 micrograms/kg/injection, schedule: Q04DX003 (ip), vehicle: saline); 96 % of control (dose: 1500.0 micrograms/kg/injection, schedule: Q04DX003 (ip), vehicle: saline).
As for `CNc1nc(N(C)C)nc(N(C)C)n1`, the T/C was 105 % of control (dose: 6.25 mg/kg/injection, schedule: Q04DX003 (ip), vehicle: water); 101 % of control (dose: 12.5 mg/kg/injection, schedule: Q04DX003 (ip), vehicle: water); 98 % of control under setting [4]; 112 % of control (dose: 50.0 mg/kg/injection, schedule: Q04DX003 (ip), vehicle: water); 121 % of control (dose: 100.0 mg/kg/injection, schedule: Q04DX003 (ip), vehicle: water); 110 % of control (dose: 200.0 mg/kg/injection, schedule: Q04DX003 (ip), vehicle: water).
Regarding `COc1c(O)c2c(c3cc(C(=O)N4CCc5c4c(O)c(OC)c4[nH]c(C(=O)N6CC7CC78C6=CC(=O)c6[nH]cc(C)c68)cc54)[nH]c13)CCN2C(N)=O` (stereo unspecified), the T/C was 104 % of control (dose: 6.3 micrograms/kg/injection, schedule: Q01DX009 (ip), vehicle: saline); 99 % of control (dose: 12.5 micrograms/kg/injection, schedule: Q01DX009 (ip), vehicle: saline); 115 % of control (dose: 25.0 micrograms/kg/injection, schedule: Q01DX009 (ip), vehicle: saline); 150 % of control (dose: 50.0 micrograms/kg/injection, schedule: Q01DX009 (ip), vehicle: saline); 123 % of control (dose: 100.0 micrograms/kg/injection, schedule: Q01DX009 (ip), vehicle: saline).
As for `CN(N=O)C(=O)N[C@@H](C=O)[C@@H](O)[C@H](O)[C@H](O)CO`, the T/C runs as follows: (dose: 12.5 mg/kg/injection, schedule: Q04DX003 (ip), vehicle: other) 113 % of control; (dose: 25.0 mg/kg/injection, schedule: Q04DX003 (ip), vehicle: other) 110 % of control; (dose: 50.0 mg/kg/injection, schedule: Q04DX003 (ip), vehicle: other) 118 % of control; under setting [10], 124 % of control; (dose: 200.0 mg/kg/injection, schedule: Q04DX003 (ip), vehicle: other) 123 % of control.
